Laboratory results from ChEMBL document CHEMBL3804793, “Abietane-Type Diterpenoid Amides with Highly Potent and Selective Activity against Leishmania donovani and Trypanosoma cruzi” (J Nat Prod, 2016).

Columns and labels:
[1] = system: Trypanosoma cruzi; experiment: Antitrypanosomal activity against metacyclic form of Trypanosoma cruzi SN3 infected in African green monkey Vero cells after 72 hrs by Giemsa staining; type: functional, organism-based
[2] = Selectivity index, ratio of IC50 for African green monkey Vero cells to IC50 for metacyclic form of Trypanosoma cruzi SN3; type: toxicity, cell-based; settings: read-out: Ratio IC50
[3] = system: Leishmania donovani; experiment: Antileishmanial activity against axenic amastigotes of Leishmania donovani MHOM/SD/1962/1S-Cl2d infected in human THP1 cells assessed as parasite growth inhibition at 15 uM after 24 hrs by AlamarBlue viability assay; type: functional; settings: read-out: GI
[4] = system: Leishmania donovani; experiment: Antileishmanial activity against axenic amastigotes of Leishmania donovani MHOM/SD/1962/1S-Cl2d infected in human THP1 cells assessed as parasite growth inhibition at 50 uM after 24 hrs by AlamarBlue viability assay; type: functional; settings: read-out: GI
[5] = system: Leishmania donovani; experiment: Antileishmanial activity against axenic amastigotes of Leishmania donovani MHOM/SD/1962/1S-Cl2d […] assessed as parasite growth inhibition after 24 hrs by AlamarBlue viability assay; type: functional, organism-based
[6] = Selectivity index, ratio of IC50 for human THP1 cells to IC50 for axenic amastigotes of Leishmania donovani MHOM/SD/1962/1S-Cl2d infected in human THP1 cells; type: toxicity, cell-based, THP-1; settings: read-out: Ratio IC50
[7] = Cytotoxicity against human THP1 cells after 48 hrs by AlamarBlue viability assay; type: cell-based; settings: THP-1, 48 h
[8] = system: Trypanosoma cruzi; experiment: Antitrypanosomal activity against trypomastigote form of Trypanosoma cruzi Tulahuen C2C4 expressing LacZ gene infected in rat L6 cells after 96 hrs by photometric method; type: functional, organism-based; settings: Tulahuen C2C4, L6, 96 h
[9] = Selectivity index, ratio of IC50 for rat L6 cells to IC50 for Trypanosoma cruzi Tulahuen C2C4 amastigotes; type: toxicity, cell-based; settings: read-out: Ratio IC50
[10] = system: L6; experiment: Cytotoxicity against rat L6 cells after 72 hrs by AlamarBlue dye based fluorimetric method; type: cell-based; settings: L6, 72 h
[11] = system: Leishmania donovani; experiment: Antileishmanial activity against axenic amastigotes of Leishmania donovani MHOM/SD/1962/1S-Cl2d infected in human macrophages at 5 uM; type: functional
[12] = system: Trypanosoma cruzi; experiment: Potency index, ratio of IC50 for benznidazole to IC50 for test compound against trypomastigote form of Trypanosoma cruzi Tulahuen C2C4 expressing LacZ gene infected in rat L6 cells; type: functional
[13] = system: Leishmania donovani; experiment: Selectivity for axenic amastigotes of Leishmania donovani MHOM/SD/1962/1S-Cl2d infected in human macrophages over axenic amastigotes of Leishmania donovani MHOM/SD/1962/1S-Cl2d infected in human THP1 cells; type: functional, THP-1
[14] = system: Trypanosoma cruzi; experiment: Antitrypanosomal activity against intracellular form of Trypanosoma cruzi; type: functional, organism-based
[15] = system: Leishmania donovani; experiment: Antileishmanial activity against amastigotes of Leishmania donovani MHOM/SD/1962/1S-Cl2d infected in human THP1 cells assessed as parasite growth inhibition at 1 uM after 24 hrs by AlamarBlue viability assay; settings: THP-1, 24 h

| SMILES | inhibition of growth at 15 µM [3] | inhibition of growth at 50 µM [4] | IC50 [5] | selectivity ratio [6] | IC50 [7] | also measured |
| --- | --- | --- | --- | --- | --- | --- |
| COC(=O)[C@]1(C)CCC[C@]2(C)C3=C(CC[C@@H]12)C(=O)C(C(C)C)=CC3=O | – | – | – | – | – | IC50 [1]: 17.3 µM; selectivity ratio [2]: 45 |
| CC(C)c1ccc2c(c1)CC[C@H]1[C@](C)(CNC(=O)CCC(=O)O)CCC[C@]21C | 55% | 98.1% | – | – | – | – |
| C#CC(=O)NC[C@]1(C)CCC[C@]2(C)c3ccc(C(C)C)cc3CC[C@@H]12 | 98.1% | 99.8% | 4.1 µM | < 1 | < 3 µM | – |
| CC(C)c1ccc2c(c1)CC[C@H]1[C@](C)(CNC(=O)/C=C/c3ccc([N+](=O)[O-])cc3)CCC[C@]21C | – | 42.7% | – | – | – | – |
| CC(C)c1ccc2c(c1)CC[C@H]1[C@](C)(CNC(=O)/C=C/c3ccccc3)CCC[C@]21C | – | 42.4% | – | – | – | – |
| CC(C)c1ccc2c(c1)CC[C@H]1[C@](C)(CNC(=O)c3ccccc3C(=O)O)CCC[C@]21C | 34.9% | 98.5% | – | – | – | – |
| CC(=O)NC[C@]1(C)CCC[C@]2(C)c3ccc(C(C)C)cc3CC[C@@H]12 | 96% | 98.5% | 2.4 µM | 14 | 33.3 µM | IC50 [8]: 3.7 µM; selectivity ratio [9]: 6; IC50 [10]: 24.3 µM |
| CCCC(=O)NC[C@]1(C)CCC[C@]2(C)c3ccc(C(C)C)cc3CC[C@@H]12 | 73.2% | 96.6% | 5.1 µM | 11 | 56.3 µM | – |
| C=CC(=O)NC[C@]1(C)CCC[C@]2(C)c3ccc(C(C)C)cc3CC[C@@H]12 | 99.6% | 99.8% | 0.37 µM | 63 | 23.2 µM | IC50 [8]: 0.6 µM; inhibition at 5 µM [11]: 94.7%; Ratio IC50 [12]: 3.5; selectivity ratio [9]: 58; selectivity ratio [13]: 6; IC50 [10]: 36.7 µM |
| CC(C)c1ccc2c(c1)CC[C@H]1[C@](C)(CNC(=O)c3nccnc3C(=O)O)CCC[C@]21C | – | 9.4% | – | – | – | – |
| CC(C)c1ccc2c(c1)CC[C@H]1[C@](C)(CNC(=O)c3ccc[nH]3)CCC[C@]21C | 90.6% | 99.1% | 3.2 µM | 10 | 33.3 µM | – |
| CC(C)c1ccc2c(c1)CC[C@H]1[C@](C)(CNC(=O)c3ccccc3)CCC[C@]21C | 56.3% | 95.7% | – | – | – | – |
| CC(C)c1ccc2c(c1)CC[C@H]1[C@](C)(CNC(=O)/C=C\C(=O)O)CCC[C@]21C | 90.7% | 98.8% | 1.9 µM | 76 | 145 µM | IC50 [8]: 9.5 µM; inhibition at 5 µM [11]: 34.7%; selectivity ratio [9]: 4; IC50 [10]: 33.5 µM |
| CC(C)c1ccc2c(c1)CC[C@H]1[C@](C)(CN)CCC[C@]21C | – | 68.7% | – | – | – | IC50 [8]: 7.4 µM; selectivity ratio [9]: 1; IC50 [10]: 6.5 µM |
| CC(C)c1cc2c(c(O)c1O)[C@@]1(C)CCCC(C)(C)C1=C(O)C2=O [14-DEOXYCOLEON U] | – | – | – | – | – | IC50 [14]: 25.7 µM |
| C[C@@H]1[C@H](O)[C@@H](C)/C=C/C=C/C=C/C=C/C=C/C=C/C=C/[C@H](O[C@@H]2O[C@H](C)[C@@H](O)[C@H](N)[C@@H]2O)C[C@@H]2O[C@](O)(C[C@@H](O)C[C@@H](O)[C@H](O)CC[C@@H](O)C[C@@H](O)CC(=O)O[C@H]1C)C[C@H](O)[C@H]2C(=O)O [AMPHOTERICIN B] | – | – | – | – | – | inhibition at 1 µM [15]: > 90% |
